Laboratory results taken from patent publication EP0819136B1, “MDP DERIVATIVES AND CONJUGATES HAVING HAEMATOPOIETIC FUNCTION STIMULATING ACTIVITY, AND COMPOSITIONS CONTAINING SAME” (VACSYN S.A., priority 1995, dated 1996).

Columns and labels:
[1] = tested on: leucocytes et de neutrophiles circulants; assay: Leucocyte, neutrophil and myelocyte counts after oral Muradimétide with non-myelotoxic or myelotoxic i.v. AZT (Example 8, figures 1-3); type: in vivo, souris Swiss femelles; conditions: Muradimétide 25 mg/kg p.o. 4 h before AZT 5 or 40 mg/kg i.v., days 0-3; time after start of treatment
Experimental: La figure 1 montre l'effet d'un traitement per os des souris avec du Muradimétide en association avec des doses d'AZT non myélotoxiques (5 mg par kg) (Fig 1A) ou myélotoxiques (40mg par kg) (Fig 1B) sur le changement des leucocytes circulants.
La figure 2 représente le même type de courbe sur la numération des neutrophiles; la figure 2A représente une expérience réalisée avec une dose non myélotoxique d'AZT (5 mg par kg) et la figure 2B avec une dose myélotoxique d'AZT (40 mg par kg).
La figure 3 représente le même type de courbe sur la numération des myélocytes. La figure 3A se rapporte à une dose non myélotoxique d'AZT (5mg/kg) et la figure 3B à une dose myélotoxique (40 mg/kg).
Cet effet est indiqué sur les figures 1 et 2, les figures 1A et 2A représentant une dose non myélotoxique d'AZT et les figures 1B et 2B représentant une dose myélotoxique d'AZT.
Dans cette expérience, des souris Swiss femelles ont été injectées par voie intra-veineuse avec de l'AZT à la dose de 5 ou de 40 mg par kg aux jours 0, 1, 2 et 3. Sur chacun des 4 jours et 4 heures avant l'administration d'AZT, des groupes de souris constitués de 5 individus ont reçu per os soit du tampon soit du Muradimétide à la dose de 25 mg par kg.
Les comptages cellulaires sont effectués aux jours 0, 1, 2, 3, 4 et 7. […]

[2] = tested on: CSH; assay: Circulating CSH at different stages of differentiation, colony cultures of blood mononuclear cells from treated mice (Example 7, figures 14a-d); type: in vivo, souris (10 Balb/c par groupe); conditions: once daily for three consecutive days, MDM 25 mg/kg with or without AZT 50 mg/kg; blood collected 24 h after the last administration
Source text: Ces expériences ont pour objet la mise en évidence des différentes populations de CSH présentes dans le sang circulant.
Ont été recherchés les stades suivants depuis les plus primitifs décelables en culture et qui ne présentent aucun signe de différenciation comme les CFAC (Coblestone Area Forming Cells) et LTC-IC (Long Term Culture - Initiating Cells) jusqu'au GM-CFU (Granulocyte Macrophage - Colony Forming Units) en passant par des stades intermédiaires comme les HPP et LPP-CFU (respectivement High Proliferating Potential and Low Proliferating Potential CFU). Dans tous les cas, les conditions de cultures, en particulier leur durée, ont été choisies pour permettre une détection optimale des différentes populations considérées.
Ont été comparés pour cette étude l'effet de l'injection de saline (X-), d'AZT à 50 mg/kg, du MDM à 25 mg/kg et le mélange des deux sur le nombre de CSH cirulants. Les cellules mononucléaires après purification ont été cultivées pendant 5 jours pour dénombrer les GM-UFC (pour granulocytes - macrophages unités formant colonies), pendant 28 jours pour dénombrer les unités formant colonies à bas potentiel prolifératif (LPP) et les UFC à haut potentiel prolifératif (HPP). Les CAFC ont été dénombrés après 14 jours de culture. Les LTC-IC après 28 jours. Les résultats sont présentés sur les figures 14a, 14b, 14c et 14d respectivement. […]

[3] = tested on: globules rouges et les plaquettes; assay: Red blood cell and platelet counts after 7 days of oral AZT, Muradimétide or both (Example 3, figures 9 and 10); type: in vivo, souris femelles BALB/c; conditions: p.o. once daily for 7 days: 100 mg/kg AZT, 50 mg/kg muradimétide, or both simultaneously; counts up to day 10
Source text: La figure 9 représente l'effet du traitement per os de souris BALB/c pendant 7 jours consécutifs avec de l'AZT, du Muradimétide (MDM) ou un mélange de ceux-ci sur la numération plaquettaire.
La figure 10 représente l'effet du traitement per os de souris BALB/c pendant 7 jours consécutifs avec de l'AZT, du Muradimétide (MDM) ou un mélange de ceux-ci sur le nombre des globules rouges.
L'effet d'un traitement de 7 jours sur le nombre de globules rouges et de plaquettes est indiqué dans les figures 9 et 10 respectivement. Les numérations sont représentées en pourcentage de celles obtenues au jour 0. Des souris femelles BALB/c (5 par groupe) sont traitées une fois par jour pendant 7 jours consécutifs par 100 mg/kg d'AZT (Δ), 50 mg/kg de muradimétide (D) ou simultanément par 100 mg/kg d'AZT et 50 mg/kg de muradimétide (O). Les comptages de plaquettes ou de globules rouges ont été réalisés au jour 0 et jusqu'à 10 jours suivant le début du traitement. […] La tendance à l'augmentation de leur nombre apparaît entre les jours 4 et 5. En revanche, l'anémie qui pourrait être observée dans les groupes traités pourrait être due aux saignements répétés; néanmoins la vitesse et l'importance de l'anémie est grandement réduite chez les animaux traités avec le mélange des deux produits en comparaison avec celui observé dans le groupe traité par l'AZT seul. […]

COC(=O)CC[C@@H](NC(=O)[C@H](C)NC(=O)[C@@H](C)O[C@H]1[C@H](O)[C@@H](CO)OC(O)[C@@H]1NC(C)=O)C(=O)OC (stereo partly drawn) [Muradimétide, Nac-Mur-L-Ala-D-Glu-[OCH3]-OCH3]
temps de l'effet maximum (leucocytes, neutrophiles, myélocytes) [1]: 4 jours | nombre de CSH circulants (GM-CFU, LPP-CFU, HPP-CFU) [2]: apparaît clairement | toxicité sur les plaquettes [3]: Aucune toxicité
